Results published in ChEMBL document CHEMBL1144565, “Anti-breast cancer activity of LFM-A13, a potent inhibitor of Polo-like kinase (PLK)” (Bioorg Med Chem, 2007).
The source made the active and inactive calls. The rule behind the calls is not given here.

Tests used:
Mus musculus [1] = assay: Acute toxicity in CD1 mouse assessed as absolute lymphocyte counts at 10 mg/kg, ip after 7 days; type: organism-based; set-up: dose 10 mg/kg, route intraperitoneal; conditions: in vivo, 168 h
Mus musculus [2] = assay: Acute toxicity in CD1 mouse assessed as myeloid or lymphoid hyperplasia in bone marrow at 80 mg/kg, ip after 7 days; type: organism-based; set-up: dose 80 mg/kg, route intraperitoneal; conditions: in vivo, 168 h
Mus musculus [3] = assay: Acute toxicity in CD1 mouse assessed as myeloid or lymphoid hyperplasia in bone marrow at 40 mg/kg, ip after 7 days; type: organism-based; set-up: dose 40 mg/kg, route intraperitoneal; conditions: in vivo, 168 h
Mus musculus [4] = assay: Acute toxicity in CD1 mouse assessed as myeloid or lymphoid hyperplasia in bone marrow at 20 mg/kg, ip after 7 days; type: organism-based; set-up: dose 20 mg/kg, route intraperitoneal; conditions: in vivo, 168 h
Mus musculus [5] = assay: Acute toxicity in CD1 mouse assessed as myeloid or lymphoid hyperplasia in bone marrow at 10 mg/kg, ip after 7 days; type: organism-based; set-up: dose 10 mg/kg, route intraperitoneal; conditions: in vivo, 168 h
Mus musculus [6] = assay: Subacute toxicity in CD1 mouse assessed as WBC counts at 80 mg/kg, ip after 30 days; type: organism-based; set-up: dose 80 mg/kg, route intraperitoneal; conditions: in vivo, 720 h
Mus musculus [7] = assay: Subacute toxicity in CD1 mouse assessed as absolute neutrophil counts at 80 mg/kg, ip after 30 days; type: organism-based; set-up: dose 80 mg/kg, route intraperitoneal; conditions: in vivo, 720 h
Mus musculus [8] = assay: Subacute toxicity in CD1 mouse assessed as absolute lymphocyte counts at 80 mg/kg, ip after 30 days; type: organism-based; set-up: dose 80 mg/kg, route intraperitoneal; conditions: in vivo, 720 h
Mus musculus [9] = assay: Subacute toxicity in CD1 mouse assessed as WBC counts at 40 mg/kg, ip after 30 days; type: organism-based; set-up: dose 40 mg/kg, route intraperitoneal; conditions: in vivo, 720 h
[10] = molecular target: T1, Serine/threonine-protein kinase PLK1 (Xenopus laevis, UniProt P70032); assay: Inhibition of xenopus recombinant Plx1 expressed in Sf21 cells by measuring autophosphorylation by 15-mins kinase assay; type: functional
T1 sequence (P70032 whole entry): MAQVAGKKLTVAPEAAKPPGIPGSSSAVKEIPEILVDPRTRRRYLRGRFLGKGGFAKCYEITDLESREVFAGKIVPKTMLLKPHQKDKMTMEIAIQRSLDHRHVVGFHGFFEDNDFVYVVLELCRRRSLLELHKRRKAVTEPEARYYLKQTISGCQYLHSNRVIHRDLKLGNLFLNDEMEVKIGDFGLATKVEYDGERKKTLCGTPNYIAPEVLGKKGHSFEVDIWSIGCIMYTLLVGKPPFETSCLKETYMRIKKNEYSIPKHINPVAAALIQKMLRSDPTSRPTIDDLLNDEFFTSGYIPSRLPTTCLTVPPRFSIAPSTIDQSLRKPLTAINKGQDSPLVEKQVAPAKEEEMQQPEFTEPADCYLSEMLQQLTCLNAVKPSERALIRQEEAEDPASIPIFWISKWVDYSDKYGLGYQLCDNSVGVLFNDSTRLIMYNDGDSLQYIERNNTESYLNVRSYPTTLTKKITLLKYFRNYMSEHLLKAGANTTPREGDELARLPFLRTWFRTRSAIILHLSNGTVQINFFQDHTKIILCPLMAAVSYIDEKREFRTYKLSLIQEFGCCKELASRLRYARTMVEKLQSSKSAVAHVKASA

[11] = molecular target: T1, Serine/threonine-protein kinase PLK1; assay: Inhibition of Xenopus recombinant Plx1 expressed in Sf21 cells by GST-Cdc25 substrate phosphorylation assay; type: functional
[12] = molecular target: Cyclin-dependent kinase 1 (Homo sapiens, UniProt P06493); assay: Inhibition of CDK1
Sequence of Cyclin-dependent kinase 1 (P06493 whole entry): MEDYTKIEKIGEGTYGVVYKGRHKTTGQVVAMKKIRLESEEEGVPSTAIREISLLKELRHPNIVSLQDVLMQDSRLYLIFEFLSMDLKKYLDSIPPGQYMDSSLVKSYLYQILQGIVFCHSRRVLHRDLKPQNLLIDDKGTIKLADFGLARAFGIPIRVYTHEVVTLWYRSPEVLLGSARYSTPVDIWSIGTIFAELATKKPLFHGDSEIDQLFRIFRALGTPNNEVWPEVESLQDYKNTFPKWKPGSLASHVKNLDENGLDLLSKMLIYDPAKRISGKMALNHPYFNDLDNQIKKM

[13] = molecular target: Cyclin-dependent kinase 2 (Homo sapiens, UniProt P24941); assay: Inhibition of CDK2
[14] = molecular target: Cyclin-dependent kinase 3 (Homo sapiens, UniProt Q00526); assay: Inhibition of CDK3
[15] = molecular target: Serine/threonine-protein kinase Chk1 (Homo sapiens, UniProt O14757); assay: Inhibition of CHK1
Sequence of Serine/threonine-protein kinase Chk1 (O14757 whole entry): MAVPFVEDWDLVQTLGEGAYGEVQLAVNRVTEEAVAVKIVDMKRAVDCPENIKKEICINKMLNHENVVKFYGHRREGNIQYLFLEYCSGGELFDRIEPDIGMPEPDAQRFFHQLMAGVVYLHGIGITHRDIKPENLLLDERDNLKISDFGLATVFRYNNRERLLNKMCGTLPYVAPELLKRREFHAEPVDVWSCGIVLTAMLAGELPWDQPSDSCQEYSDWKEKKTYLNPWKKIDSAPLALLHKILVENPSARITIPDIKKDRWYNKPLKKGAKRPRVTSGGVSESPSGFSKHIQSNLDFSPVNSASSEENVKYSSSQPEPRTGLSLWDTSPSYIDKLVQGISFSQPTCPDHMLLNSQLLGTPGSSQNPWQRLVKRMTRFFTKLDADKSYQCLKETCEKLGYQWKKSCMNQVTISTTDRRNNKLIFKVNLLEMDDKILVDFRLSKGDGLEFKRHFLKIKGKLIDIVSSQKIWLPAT

[16] = molecular target: Inhibitor of NF-kappa-B kinase (IKK) (Homo sapiens, UniProt O14920+O15111+Q9Y6K9); assay: Inhibition of IKK; type: protein-complex assay
[17] = molecular target: Mitogen-activated protein kinase 1 (Homo sapiens, UniProt P28482); assay: Inhibition of MAPK1
[18] = molecular target: T2, Serine/threonine-protein kinase PLK3 (Homo sapiens, UniProt Q9H4B4); assay: Inhibition of human PLK3
T2 sequence (Q9H4B4 whole entry): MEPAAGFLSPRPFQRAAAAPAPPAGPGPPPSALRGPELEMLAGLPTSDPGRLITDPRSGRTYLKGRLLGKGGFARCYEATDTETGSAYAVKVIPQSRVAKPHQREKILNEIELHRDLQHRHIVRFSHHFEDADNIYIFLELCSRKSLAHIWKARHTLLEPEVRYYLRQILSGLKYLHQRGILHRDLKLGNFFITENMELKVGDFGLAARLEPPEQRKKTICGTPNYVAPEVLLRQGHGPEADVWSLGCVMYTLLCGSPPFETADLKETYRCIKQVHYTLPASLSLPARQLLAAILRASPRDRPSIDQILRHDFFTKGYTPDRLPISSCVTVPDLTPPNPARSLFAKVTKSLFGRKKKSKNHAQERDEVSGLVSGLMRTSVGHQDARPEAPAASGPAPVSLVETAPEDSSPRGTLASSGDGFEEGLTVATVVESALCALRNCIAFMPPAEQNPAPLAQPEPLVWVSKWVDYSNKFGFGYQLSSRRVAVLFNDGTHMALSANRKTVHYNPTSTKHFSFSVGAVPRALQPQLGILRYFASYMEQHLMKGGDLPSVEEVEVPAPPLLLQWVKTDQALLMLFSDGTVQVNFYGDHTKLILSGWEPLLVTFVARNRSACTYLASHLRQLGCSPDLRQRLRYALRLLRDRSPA

[19] = molecular target: Mitogen-activated protein kinase 14 (Homo sapiens, UniProt Q16539); assay: Inhibition of SAPK2a
[20] = molecular target: Tyrosine-protein kinase ABL1 (Homo sapiens, UniProt P00519); assay: Inhibition of ABL kinase
[21] = molecular target: Protein-tyrosine kinase 6 (Homo sapiens, UniProt Q13882); assay: Inhibition of BRK
Sequence of Protein-tyrosine kinase 6 (Q13882 whole entry): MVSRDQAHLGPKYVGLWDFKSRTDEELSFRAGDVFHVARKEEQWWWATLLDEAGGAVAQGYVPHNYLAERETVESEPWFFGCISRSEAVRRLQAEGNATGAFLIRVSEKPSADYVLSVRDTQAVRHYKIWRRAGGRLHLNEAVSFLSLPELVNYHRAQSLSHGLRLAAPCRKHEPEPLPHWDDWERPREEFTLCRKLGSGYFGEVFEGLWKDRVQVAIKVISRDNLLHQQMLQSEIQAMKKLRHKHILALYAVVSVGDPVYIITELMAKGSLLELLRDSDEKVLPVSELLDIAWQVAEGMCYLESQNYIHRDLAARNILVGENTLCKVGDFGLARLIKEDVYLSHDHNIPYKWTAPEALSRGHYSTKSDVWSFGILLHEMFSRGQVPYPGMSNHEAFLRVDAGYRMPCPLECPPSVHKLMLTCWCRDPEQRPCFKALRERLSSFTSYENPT

[22] = molecular target: Cytoplasmic tyrosine-protein kinase BMX (Homo sapiens, UniProt P51813); assay: Inhibition of BMX kinase
[23] = molecular target: Mast/stem cell growth factor receptor Kit (Homo sapiens, UniProt P10721); assay: Inhibition of C-Kit kinase
Sequence of Mast/stem cell growth factor receptor Kit (P10721 whole entry): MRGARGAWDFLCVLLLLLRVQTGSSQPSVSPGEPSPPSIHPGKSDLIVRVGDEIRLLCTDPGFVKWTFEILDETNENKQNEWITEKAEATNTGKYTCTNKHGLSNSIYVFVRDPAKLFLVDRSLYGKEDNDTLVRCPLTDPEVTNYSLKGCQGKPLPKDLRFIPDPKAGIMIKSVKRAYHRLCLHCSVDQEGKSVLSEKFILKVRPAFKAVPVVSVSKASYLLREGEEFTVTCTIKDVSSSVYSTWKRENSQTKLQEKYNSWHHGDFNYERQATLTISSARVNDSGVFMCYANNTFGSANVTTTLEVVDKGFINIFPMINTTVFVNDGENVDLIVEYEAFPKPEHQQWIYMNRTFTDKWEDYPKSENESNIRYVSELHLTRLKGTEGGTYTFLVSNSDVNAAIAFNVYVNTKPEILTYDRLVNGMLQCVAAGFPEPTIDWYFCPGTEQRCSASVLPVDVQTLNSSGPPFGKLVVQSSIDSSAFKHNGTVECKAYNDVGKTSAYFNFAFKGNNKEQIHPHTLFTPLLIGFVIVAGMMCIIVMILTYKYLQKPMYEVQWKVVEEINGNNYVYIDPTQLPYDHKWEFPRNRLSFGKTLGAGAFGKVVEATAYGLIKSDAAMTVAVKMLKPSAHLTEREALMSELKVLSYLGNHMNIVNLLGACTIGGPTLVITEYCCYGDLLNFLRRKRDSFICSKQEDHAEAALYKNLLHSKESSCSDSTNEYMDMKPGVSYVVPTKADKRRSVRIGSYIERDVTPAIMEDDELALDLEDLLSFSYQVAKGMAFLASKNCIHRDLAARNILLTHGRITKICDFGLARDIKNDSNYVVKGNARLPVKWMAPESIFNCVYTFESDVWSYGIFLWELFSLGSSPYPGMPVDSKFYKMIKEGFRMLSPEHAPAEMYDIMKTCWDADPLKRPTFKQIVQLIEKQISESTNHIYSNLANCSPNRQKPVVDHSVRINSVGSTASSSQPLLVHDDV

[24] = molecular target: Tyrosine-protein kinase Fyn (Homo sapiens, UniProt P06241); assay: Inhibition of FYN kinase
[25] = molecular target: Insulin-like growth factor 1 receptor (Homo sapiens, UniProt P08069); assay: Inhibition of IGF1R
[26] = molecular target: Tyrosine-protein kinase JAK2 (Homo sapiens, UniProt O60674); assay: Inhibition of JAK2
[27] = molecular target: Hepatocyte growth factor receptor (Homo sapiens, UniProt P08581); assay: Inhibition of Met kinase
Sequence of Hepatocyte growth factor receptor (P08581 whole entry): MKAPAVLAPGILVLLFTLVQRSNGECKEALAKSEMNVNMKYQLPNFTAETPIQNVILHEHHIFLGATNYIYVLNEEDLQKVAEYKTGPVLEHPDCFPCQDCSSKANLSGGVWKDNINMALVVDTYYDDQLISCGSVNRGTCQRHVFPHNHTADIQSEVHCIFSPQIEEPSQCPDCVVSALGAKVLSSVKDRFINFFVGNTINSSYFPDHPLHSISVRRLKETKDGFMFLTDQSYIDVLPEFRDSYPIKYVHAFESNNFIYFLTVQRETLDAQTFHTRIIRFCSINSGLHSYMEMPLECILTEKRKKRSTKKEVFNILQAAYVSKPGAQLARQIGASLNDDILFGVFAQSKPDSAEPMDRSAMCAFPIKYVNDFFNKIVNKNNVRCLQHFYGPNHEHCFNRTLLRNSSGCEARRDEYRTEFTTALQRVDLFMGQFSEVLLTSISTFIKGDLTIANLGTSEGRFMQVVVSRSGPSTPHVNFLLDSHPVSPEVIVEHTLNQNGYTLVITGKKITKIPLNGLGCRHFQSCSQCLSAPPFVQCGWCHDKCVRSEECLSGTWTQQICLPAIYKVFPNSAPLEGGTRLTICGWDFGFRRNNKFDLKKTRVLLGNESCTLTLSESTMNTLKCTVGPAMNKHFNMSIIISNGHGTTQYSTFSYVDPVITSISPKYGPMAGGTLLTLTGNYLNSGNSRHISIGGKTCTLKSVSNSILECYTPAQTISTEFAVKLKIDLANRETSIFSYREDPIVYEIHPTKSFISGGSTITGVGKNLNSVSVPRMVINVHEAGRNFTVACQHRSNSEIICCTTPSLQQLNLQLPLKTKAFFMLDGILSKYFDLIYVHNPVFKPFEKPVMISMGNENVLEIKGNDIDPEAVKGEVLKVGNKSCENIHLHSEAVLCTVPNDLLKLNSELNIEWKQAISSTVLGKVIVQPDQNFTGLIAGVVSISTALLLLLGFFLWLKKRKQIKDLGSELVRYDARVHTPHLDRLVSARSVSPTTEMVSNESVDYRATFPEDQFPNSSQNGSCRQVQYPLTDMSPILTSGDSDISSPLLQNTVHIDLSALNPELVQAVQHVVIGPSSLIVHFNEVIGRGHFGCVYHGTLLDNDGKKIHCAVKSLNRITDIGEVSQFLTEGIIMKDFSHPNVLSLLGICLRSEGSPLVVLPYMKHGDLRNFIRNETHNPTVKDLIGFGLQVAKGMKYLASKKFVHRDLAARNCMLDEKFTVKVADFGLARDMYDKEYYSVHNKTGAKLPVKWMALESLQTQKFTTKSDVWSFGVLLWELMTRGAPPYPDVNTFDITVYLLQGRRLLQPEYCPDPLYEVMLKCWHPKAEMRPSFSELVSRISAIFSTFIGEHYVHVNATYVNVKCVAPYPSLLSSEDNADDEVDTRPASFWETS

[28] = molecular target: Platelet-derived growth factor receptor (Homo sapiens, UniProt P09619+P16234); assay: Inhibition of PDGFR; type: protein-complex assay
[29] = molecular target: Tyrosine-protein kinase Yes (Homo sapiens, UniProt P07947); assay: Inhibition of YES kinase
[30] = molecular target: Phosphatidylinositol 4,5-bisphosphate 3-kinase catalytic subunit gamma isoform (Homo sapiens, UniProt P48736); assay: Inhibition of PI3Kgamma
[31] = molecular target: T2, Serine/threonine-protein kinase PLK3; assay: Inhibition of human PLK3 in presence of 25 uM ATP
[32] = molecular target: T2, Serine/threonine-protein kinase PLK3; assay: Inhibition of human PLK3 in presence of 50 uM ATP
[33] = molecular target: T2, Serine/threonine-protein kinase PLK3; assay: Inhibition of human PLK3 in presence of 75 uM ATP
[34] = molecular target: T2, Serine/threonine-protein kinase PLK3; assay: Inhibition of human PLK3 in presence of 100 uM ATP
[35] = molecular target: T2, Serine/threonine-protein kinase PLK3; assay: Inhibition of human PLK3 in presence of 200 uM ATP
Danio rerio [36] = organism: Danio rerio; assay: Effect on cell division blockade in zebrafish two-cell stage embryo assessed as proliferation arrest at 16-cell stage at 500 uM after 30 to 35 mins; type: functional, organism-based
Danio rerio [37] = organism: Danio rerio; assay: Effect on cell division blockade in zebrafish egg assessed as cell fusion and lysis at 500 uM after 60 mins; type: functional, organism-based
PTK1 [38] = assay: Antiproliferative activity against anaphase PTK1 cells assessed as delay in mitosis completion; type: functional, cell-based; conditions: Potorous tridactylus
PTK1 [39] = assay: Antiproliferative activity against prometaphase PTK1 cells assessed as complete arrest at 1 mM within 50 mins; type: functional, cell-based; conditions: Potorous tridactylus
BT-20 = assay: Induction of aberrant monopolar and multipolar spindle formation in human BT20 cells assessed as at 100 uM; type: functional, cell-based
U-373MG ATCC = assay: Induction of aberrant monopolar and multipolar spindle formation in human U373 cells at 100 uM; type: functional, cell-based
Mus musculus [40] = assay: Toxicity in daily po dosed BALB/c mouse; type: organism-based; conditions: in vivo
Mus musculus [41] = assay: Toxicity in cumulative po dosed BALB/c mouse; type: organism-based; conditions: in vivo
Mus musculus [42] = assay: Toxicity in po dosed BALB/c mouse; type: organism-based; conditions: in vivo
Mus musculus [43] = assay: Effect on non-proliferating tissue in ip dosed CD1 mouse assessed as toxic lesions in kidney; type: ADME, organism-based; conditions: in vivo
Mus musculus [44] = assay: Effect on non-proliferating tissue in ip dosed CD1 mouse assessed as toxic lesions in myocardium; type: ADME, organism-based; conditions: in vivo
Mus musculus [45] = assay: Effect on non-proliferating tissue in ip dosed CD1 mouse assessed as toxic lesions in pancreas; type: ADME, organism-based; conditions: in vivo
Mus musculus [46] = assay: Effect on non-proliferating tissue in ip dosed CD1 mouse assessed as toxic lesions in lung; type: ADME, organism-based; conditions: in vivo

C/C(O)=C(\C#N)C(=O)Nc1cc(Br)ccc1Br
Activity (Mus musculus [1]): 5.4 10^9/L | Activity (Mus musculus [2]): Non-toxic | Activity (Mus musculus [3]): Non-toxic | Activity (Mus musculus [4]): Non-toxic | Activity (Mus musculus [5]): Non-toxic | Activity (Mus musculus [6]): 6.1 10^9/L | Activity (Mus musculus [7]): 1.7 10^9/L | Activity (Mus musculus [8]): 4.3 10^9/L | Activity (Mus musculus [9]): 6.4 10^9/L | IC50 [10]: 10.3 µM | IC50 [11]: 32.5 µM | IC50 [12]: > 500 µM | IC50 [13]: > 500 µM | IC50 [14]: > 500 µM | IC50 [15]: > 500 µM | IC50 [16]: > 500 µM | IC50 [17]: > 500 µM | IC50 [18]: 61 µM | IC50 [19]: > 500 µM | IC50 [20]: > 500 µM | IC50 [21]: 267 µM | IC50 [22]: 281 µM | IC50 [23]: > 500 µM | IC50 [24]: 240 µM | IC50 [25]: > 500 µM | IC50 [26]: > 500 µM | IC50 [27]: 215 µM | IC50 [28]: > 500 µM | IC50 [29]: > 500 µM | IC50 [30]: > 500 µM | IC50 [31]: 61 µM | IC50 [32]: 79 µM | IC50 [33]: 120 µM | IC50 [34]: 125 µM | IC50 [35]: 262 µM | Activity (Danio rerio [36]): Active | Activity (Danio rerio [37]): Active | Activity (PTK1 [38]): Active | Activity (PTK1 [39]): Active | Activity (BT-20): Active | Activity (U-373MG ATCC): Active | LD10 (Mus musculus [40]): > 200 mg/kg | LD10 (Mus musculus [41]): > 11200 mg/kg | LD10 (Mus musculus [42]): > 100 mg/kg | Activity (Mus musculus [43]): Non-toxic | Activity (Mus musculus [44]): Non-toxic | Activity (Mus musculus [45]): Non-toxic | Activity (Mus musculus [46]): Non-toxic
